This is an account of results in PMC5524190 (Biochemistry, 2016).

Like-named read-outs stand apart in the source and are kept apart here.

Experiment [1] has as its target BaIMPDHΔL. Format: biochemical, Bacillus anthracis.
Experiment [2] concerns BaIMPDHΔL. Format: biochemical, Bacillus anthracis. This is another data set of the same source.

In the case of `NC(=O)C1=CN([C@@H]2O[C@H](COP(=O)(O)OP(=O)(O)OC[C@H]3O[C@@H](n4cnc5c(N)ncnc54)[C@H](O)[C@@H]3O)[C@@H](O)[C@H]2O)C=CC1` [NADH], the Ki (in general, the dissociation constant of the complex between target and ligand, obtained from inhibition or displacement) on BaIMPDHΔL [1] (read-out: Ki(Q), observed ± std.err.) is 620 ± 360 µM; on BaIMPDHΔL [1] (read-out: Ki(Q,B), observed ± std.err.) it was 97 ± 9 µM; on BaIMPDHΔL [2] (read-out: Ki(Q), predicted), 301 µM; on BaIMPDHΔL [2] (read-out: Ki(Q,B), predicted) it was 87.2 µM. Moreover, the “lower limit of k4 (NADH rebinding)” value in the experiment with BaIMPDHΔL [2] was greater than 2e+06 M⁻¹ s⁻¹.
In the case of `NC(=O)c1ccc[n+]([C@@H]2O[C@H](COP(=O)([O-])OP(=O)(O)OC[C@H]3O[C@@H](n4cnc5c(N)ncnc54)[C@H](O)[C@@H]3O)[C@@H](O)[C@H]2O)c1` [NAD^+], at BaIMPDHΔL [1] (read-out: Ki(B), observed ± std.err.), the inhibitory constant (Ki) was 7400 ± 400 µM. Besides, in the experiment on BaIMPDHΔL [1] (read-out: Km(B), observed ± std.err.), the Km (in general, the concentration of substrate that gives half-maximal velocity) was 460 ± 20 µM. Moreover, in the experiment with BaIMPDHΔL [2], the k2 came to 31800 M⁻¹ s⁻¹, the “k−2” value was 10.9 s⁻¹, the “k−7” value is 566000 s⁻¹ and the “lower limit of k−7 (substrate inhibition by NAD+)” value was greater than 4000 M⁻¹ s⁻¹. The Ki at BaIMPDHΔL [2] (read-out: Ki(B), predicted) was 6610 µM. Also, in the experiment on BaIMPDHΔL [2] (read-out: Km(B), predicted), the Michaelis-Menten constant (Km) is 415 µM. For the same molecule, the Kd on BaIMPDHΔL [2] (read-out: dissociation equilibrium constant k−7/k7 (substrate inhibition by NAD+)) was roughly 5500 µM.
